Measured values: ChEMBL document CHEMBL1150930, “Metabolism of rosmarinic acid in rats” (J Nat Prod, 1998)

Key:
Set-up in all cases: dose 200 mg/kg, route oral
Rattus norvegicus [1] = assay: Metabolic stability in Sprague-Dawley rat assessed as urinary excretion of trans-ferulic acid 4-O-sulfate level at 200 mg/kg, po after 0 to 24 hrs by HPLC; format: ADME, organism-based, Urine; conditions: in vivo
Rattus norvegicus [2] = assay: Metabolic stability in Sprague-Dawley rat assessed as urinary excretion of trans-ferulic acid 4-O-sulfate level at 200 mg/kg, po after 0 to 4 hrs by HPLC; format: ADME, organism-based, Urine; conditions: in vivo
Rattus norvegicus [3] = assay: Metabolic stability in Sprague-Dawley rat assessed as urinary excretion of total metabolites at 200 mg/kg, po after 0 to 4 hrs by HPLC; format: ADME, organism-based, Urine; conditions: in vivo
Rattus norvegicus [4] = assay: Metabolic stability in Sprague-Dawley rat assessed as urinary excretion of trans-caffeic acid 4-O-sulfate level at 200 mg/kg, po after 0 to 8 hrs by HPLC; format: ADME, organism-based, Urine; conditions: in vivo
Rattus norvegicus [5] = assay: Metabolic stability in Sprague-Dawley rat assessed as urinary excretion of trans-caffeic acid 4-O-sulfate level at 200 mg/kg, po after 0 to 12 hrs by HPLC; format: ADME, organism-based, Urine; conditions: in vivo
Rattus norvegicus [6] = assay: Metabolic stability in Sprague-Dawley rat assessed as urinary excretion of total metabolites at 200 mg/kg, po after 0 to 12 hrs by HPLC; format: ADME, organism-based, Urine; conditions: in vivo
Rattus norvegicus [7] = assay: Metabolic stability in Sprague-Dawley rat assessed as urinary excretion of trans-caffeic acid level at 200 mg/kg, po after 0 to 72 hrs by HPLC; format: ADME, organism-based, Urine; conditions: in vivo
Rattus norvegicus [8] = assay: Metabolic stability in Sprague-Dawley rat assessed as urinary excretion of trans-ferulic acid 4-O-sulfate level at 200 mg/kg, po after 0 to 72 hrs by HPLC; format: ADME, organism-based, Urine; conditions: in vivo
Rattus norvegicus [9] = assay: Metabolic stability in Sprague-Dawley rat assessed as urinary excretion of total metabolites at 200 mg/kg, po after 0 to 24 hrs by HPLC; format: ADME, organism-based, Urine; conditions: in vivo
Rattus norvegicus [10] = assay: Metabolic stability in Sprague-Dawley rat assessed as urinary excretion of trans-ferulic acid 4-O-sulfate level at 200 mg/kg, po after 0 to 48 hrs by HPLC; format: ADME, organism-based, Urine; conditions: in vivo
[11] = Metabolic stability in Sprague-Dawley rat assessed as urinary excretion of unchanged drug level at 200 mg/kg, po after 0 to 12 hrs by HPLC; format: ADME, organism-based; conditions: urine, read-out: Activity
Rattus norvegicus [12] = assay: Metabolic stability in Sprague-Dawley rat assessed as urinary excretion of trans-m-coumaric acid 3-O-sulfate level at 200 mg/kg, po after 0 to 36 hrs by HPLC; format: ADME, organism-based, Urine; conditions: in vivo
Rattus norvegicus [13] = assay: Metabolic stability in Sprague-Dawley rat assessed as urinary excretion of trans-m-coumaric acid level at 200 mg/kg, po after 0 to 12 hrs by HPLC; format: ADME, organism-based, Urine; conditions: in vivo
Rattus norvegicus [14] = assay: Metabolic stability in Sprague-Dawley rat assessed as urinary excretion of trans-m-coumaric acid level at 200 mg/kg, po after 0 to 36 hrs by HPLC; format: ADME, organism-based, Urine; conditions: in vivo
Rattus norvegicus [15] = assay: Metabolic stability in Sprague-Dawley rat assessed as urinary excretion of trans-caffeic acid 4-O-sulfate level at 200 mg/kg, po after 0 to 72 hrs by HPLC; format: ADME, organism-based, Urine; conditions: in vivo
Rattus norvegicus [16] = assay: Metabolic stability in Sprague-Dawley rat assessed as urinary excretion of trans-ferulic acid 4-O-sulfate level at 200 mg/kg, po after 0 to 12 hrs by HPLC; format: ADME, organism-based, Urine; conditions: in vivo
Rattus norvegicus [17] = assay: Metabolic stability in Sprague-Dawley rat assessed as urinary excretion of m-hydroxyphenyl-propionic acid level at 200 mg/kg, po after 0 to 24 hrs by HPLC; format: ADME, organism-based, Urine; conditions: in vivo
Rattus norvegicus [18] = assay: Metabolic stability in Sprague-Dawley rat assessed as urinary excretion of trans-caffeic acid level at 200 mg/kg, po after 0 to 8 hrs by HPLC; format: ADME, organism-based, Urine; conditions: in vivo
Rattus norvegicus [19] = assay: Metabolic stability in Sprague-Dawley rat assessed as urinary excretion of m-hydroxyphenyl-propionic acid level at 200 mg/kg, po after 0 to 72 hrs by HPLC; format: ADME, organism-based, Urine; conditions: in vivo
Rattus norvegicus [20] = assay: Metabolic stability in Sprague-Dawley rat assessed as urinary excretion of total metabolites at 200 mg/kg, po after 0 to 72 hrs by HPLC; format: ADME, organism-based, Urine; conditions: in vivo
Rattus norvegicus [21] = assay: Metabolic stability in Sprague-Dawley rat assessed as urinary excretion of trans-caffeic acid 4-O-sulfate level at 200 mg/kg, po after 0 to 4 hrs by HPLC; format: ADME, organism-based, Urine; conditions: in vivo
Rattus norvegicus [22] = assay: Metabolic stability in Sprague-Dawley rat assessed as urinary excretion of trans-caffeic acid level at 200 mg/kg, po after 0 to 36 hrs by HPLC; format: ADME, organism-based, Urine; conditions: in vivo
Rattus norvegicus [23] = assay: Metabolic stability in Sprague-Dawley rat assessed as urinary excretion of trans-caffeic acid level at 200 mg/kg, po after 0 to 48 hrs by HPLC; format: ADME, organism-based, Urine; conditions: in vivo
Rattus norvegicus [24] = assay: Metabolic stability in Sprague-Dawley rat assessed as urinary excretion of trans-m-coumaric acid level at 200 mg/kg, po after 0 to 8 hrs by HPLC; format: ADME, organism-based, Urine; conditions: in vivo
Rattus norvegicus [25] = assay: Metabolic stability in Sprague-Dawley rat assessed as urinary excretion of trans-caffeic acid level at 200 mg/kg, po after 0 to 4 hrs by HPLC; format: ADME, organism-based, Urine; conditions: in vivo
Rattus norvegicus [26] = assay: Metabolic stability in Sprague-Dawley rat assessed as urinary excretion of trans-ferulic acid 4-O-sulfate level at 200 mg/kg, po after 0 to 8 hrs by HPLC; format: ADME, organism-based, Urine; conditions: in vivo
Rattus norvegicus [27] = assay: Metabolic stability in Sprague-Dawley rat assessed as urinary excretion of trans-caffeic acid level at 200 mg/kg, po after 0 to 12 hrs by HPLC; format: ADME, organism-based, Urine; conditions: in vivo
Rattus norvegicus [28] = assay: Metabolic stability in Sprague-Dawley rat assessed as urinary excretion of m-hydroxyphenyl-propionic acid level at 200 mg/kg, po after 0 to 48 hrs by HPLC; format: ADME, organism-based, Urine; conditions: in vivo
Rattus norvegicus [29] = assay: Metabolic stability in Sprague-Dawley rat assessed as urinary excretion of total metabolites at 200 mg/kg, po after 0 to 8 hrs by HPLC; format: ADME, organism-based, Urine; conditions: in vivo
[30] = Metabolic stability in Sprague-Dawley rat assessed as urinary excretion of unchanged drug level at 200 mg/kg, po after 0 to 36 hrs by HPLC; format: ADME, organism-based; conditions: urine, read-out: Activity
Rattus norvegicus [31] = assay: Metabolic stability in Sprague-Dawley rat assessed as urinary excretion of trans-m-coumaric acid level at 200 mg/kg, po after 0 to 24 hrs by HPLC; format: ADME, organism-based, Urine; conditions: in vivo
Rattus norvegicus [32] = assay: Metabolic stability in Sprague-Dawley rat assessed as urinary excretion of trans-m-coumaric acid 3-O-sulfate level at 200 mg/kg, po after 0 to 72 hrs by HPLC; format: ADME, organism-based, Urine; conditions: in vivo
Rattus norvegicus [33] = assay: Metabolic stability in Sprague-Dawley rat assessed as urinary excretion of trans-caffeic acid 4-O-sulfate level at 200 mg/kg, po after 0 to 36 hrs by HPLC; format: ADME, organism-based, Urine; conditions: in vivo
[34] = Metabolic stability in Sprague-Dawley rat assessed as urinary excretion of unchanged drug level at 200 mg/kg, po after 0 to 4 hrs by HPLC; format: ADME, organism-based; conditions: urine, read-out: Activity
Rattus norvegicus [35] = assay: Metabolic stability in Sprague-Dawley rat assessed as urinary excretion of m-hydroxyphenyl-propionic acid level at 200 mg/kg, po after 0 to 8 hrs by HPLC; format: ADME, organism-based, Urine; conditions: in vivo
Rattus norvegicus [36] = assay: Metabolic stability in Sprague-Dawley rat assessed as urinary excretion of trans-caffeic acid 4-O-sulfate level at 200 mg/kg, po after 0 to 24 hrs by HPLC; format: ADME, organism-based, Urine; conditions: in vivo
Rattus norvegicus [37] = assay: Metabolic stability in Sprague-Dawley rat assessed as urinary excretion of total metabolites at 200 mg/kg, po after 0 to 48 hrs by HPLC; format: ADME, organism-based, Urine; conditions: in vivo
Rattus norvegicus [38] = assay: Metabolic stability in Sprague-Dawley rat assessed as urinary excretion of trans-m-coumaric acid level at 200 mg/kg, po after 0 to 72 hrs by HPLC; format: ADME, organism-based, Urine; conditions: in vivo
Rattus norvegicus [39] = assay: Metabolic stability in Sprague-Dawley rat assessed as urinary excretion of trans-m-coumaric acid 3-O-sulfate level at 200 mg/kg, po after 0 to 48 hrs by HPLC; format: ADME, organism-based, Urine; conditions: in vivo
[40] = Metabolic stability in Sprague-Dawley rat assessed as urinary excretion of unchanged drug level at 200 mg/kg, po after 0 to 72 hrs by HPLC; format: ADME, organism-based; conditions: urine, read-out: Activity
Rattus norvegicus [41] = assay: Metabolic stability in Sprague-Dawley rat assessed as urinary excretion of total metabolites at 200 mg/kg, po after 0 to 36 hrs by HPLC; format: ADME, organism-based, Urine; conditions: in vivo
Rattus norvegicus [42] = assay: Metabolic stability in Sprague-Dawley rat assessed as urinary excretion of trans-m-coumaric acid 3-O-sulfate level at 200 mg/kg, po after 0 to 24 hrs by HPLC; format: ADME, organism-based, Urine; conditions: in vivo
Rattus norvegicus [43] = assay: Metabolic stability in Sprague-Dawley rat assessed as urinary excretion of trans-caffeic acid level at 200 mg/kg, po after 0 to 24 hrs by HPLC; format: ADME, organism-based, Urine; conditions: in vivo
Rattus norvegicus [44] = assay: Metabolic stability in Sprague-Dawley rat assessed as urinary excretion of trans-ferulic acid 4-O-sulfate level at 200 mg/kg, po after 0 to 36 hrs by HPLC; format: ADME, organism-based, Urine; conditions: in vivo
Rattus norvegicus [45] = assay: Metabolic stability in Sprague-Dawley rat assessed as urinary excretion of m-hydroxyphenyl-propionic acid level at 200 mg/kg, po after 0 to 36 hrs by HPLC; format: ADME, organism-based, Urine; conditions: in vivo
Rattus norvegicus [46] = assay: Metabolic stability in Sprague-Dawley rat assessed as urinary excretion of trans-caffeic acid 4-O-sulfate level at 200 mg/kg, po after 0 to 48 hrs by HPLC; format: ADME, organism-based, Urine; conditions: in vivo
Rattus norvegicus [47] = assay: Metabolic stability in Sprague-Dawley rat assessed as urinary excretion of m-hydroxyphenyl-propionic acid level at 200 mg/kg, po after 0 to 12 hrs by HPLC; format: ADME, organism-based, Urine; conditions: in vivo
[48] = Metabolic stability in Sprague-Dawley rat assessed as urinary excretion of unchanged drug level at 200 mg/kg, po after 0 to 24 hrs by HPLC; format: ADME, organism-based; conditions: urine, read-out: Activity
[49] = Metabolic stability in Sprague-Dawley rat assessed as urinary excretion of unchanged drug level at 200 mg/kg, po after 0 to 8 hrs by HPLC; format: ADME, organism-based; conditions: urine, read-out: Activity
Rattus norvegicus [50] = assay: Metabolic stability in Sprague-Dawley rat assessed as urinary excretion of trans-m-coumaric acid 3-O-sulfate level at 200 mg/kg, po after 0 to 12 hrs by HPLC; format: ADME, organism-based, Urine; conditions: in vivo
[51] = Metabolic stability in Sprague-Dawley rat assessed as urinary excretion of unchanged drug level at 200 mg/kg, po after 0 to 48 hrs by HPLC; format: ADME, organism-based; conditions: urine, read-out: Activity
Rattus norvegicus [52] = assay: Metabolic stability in Sprague-Dawley rat assessed as urinary excretion of trans-m-coumaric acid level at 200 mg/kg, po after 0 to 48 hrs by HPLC; format: ADME, organism-based, Urine; conditions: in vivo

Activity (Rattus norvegicus [1]): 0.538%
Activity (Rattus norvegicus [2]): 0.081%
Activity (Rattus norvegicus [3]): 0.17%
Activity (Rattus norvegicus [4]): 0.124%
Activity (Rattus norvegicus [5]): 0.139%
Activity (Rattus norvegicus [6]): 6.241%
Activity (Rattus norvegicus [7]): 0.117%
Activity (Rattus norvegicus [8]): 0.581%
Activity (Rattus norvegicus [9]): 23.143%
Activity (Rattus norvegicus [10]): 0.581%
dose excreted [11]: 0.077%
Activity (Rattus norvegicus [12]): 11.778%
Activity (Rattus norvegicus [13]): 0.1%
Activity (Rattus norvegicus [14]): 0.399%
Activity (Rattus norvegicus [15]): 0.154%
Activity (Rattus norvegicus [16]): 0.462%
Activity (Rattus norvegicus [17]): 14.527%
Activity (Rattus norvegicus [18]): 0.027%
Activity (Rattus norvegicus [19]): 18.357%
Activity (Rattus norvegicus [20]): 31.836%
Activity (Rattus norvegicus [21]): 0.038%
Activity (Rattus norvegicus [22]): 0.086%
Activity (Rattus norvegicus [23]): 0.117%
Activity (Rattus norvegicus [24]): 0.015%
Activity (Rattus norvegicus [25]): 0.01%
Activity (Rattus norvegicus [26]): 0.284%
Activity (Rattus norvegicus [27]): 0.037%
Activity (Rattus norvegicus [28]): 18.357%
Activity (Rattus norvegicus [29]): 1.476%
dose excreted [30]: 0.077%
Activity (Rattus norvegicus [31]): 0.333%
Activity (Rattus norvegicus [32]): 12.137%
Activity (Rattus norvegicus [33]): 0.154%
dose excreted [34]: 0.041%
Activity (Rattus norvegicus [35]): 0.949%
Activity (Rattus norvegicus [36]): 0.149%
Activity (Rattus norvegicus [37]): 31.836%
Activity (Rattus norvegicus [38]): 0.413%
Activity (Rattus norvegicus [39]): 12.137%
dose excreted [40]: 0.077%
Activity (Rattus norvegicus [41]): 30.483%
Activity (Rattus norvegicus [42]): 7.456%
Activity (Rattus norvegicus [43]): 0.063%
Activity (Rattus norvegicus [44]): 0.559%
Activity (Rattus norvegicus [45]): 17.43%
Activity (Rattus norvegicus [46]): 0.154%
Activity (Rattus norvegicus [47]): 5.252%
dose excreted [48]: 0.077%
dose excreted [49]: 0.077%
Activity (Rattus norvegicus [50]): 0.174%
dose excreted [51]: 0.077%
Activity (Rattus norvegicus [52]): 0.413%
Structure (SMILES): O=C(/C=C/c1ccc(O)c(O)c1)O[C@H](Cc1ccc(O)c(O)c1)C(=O)O [ROSMARINIC ACID]
